Results as given in patent US4791118A, “Quinolonecarboxylic acid derivatives and their preparation” (Kyorin Pharmaceutical Co., Ltd., priority 1985, dated 1988).

Experiments:
S. pyogenes 4340 = assay: MIC, clinical isolates; assay type: cell-based; details: Streptococcus pyogenes; clinical isolate S. pyogenes 4340; 10^6 cells/ml
S. agalactiae 4342 = assay: MIC, clinical isolates; assay type: cell-based; details: Streptococcus agalactiae; clinical isolate S. agalactiae 4342; 10^6 cells/ml
S. pneumoniae 2054 = assay: MIC, clinical isolates; assay type: cell-based; details: Streptococcus pneumoniae; clinical isolate S. pneumoniae 2054; 10^6 cells/ml
E. lentum GAI 5242 = assay: microbe, parasite or virus in culture; details: Eggerthella lenta, GAI5242
E. coli ML 4707 = assay: MIC, aerobic bacteria; assay type: cell-based; details: Escherichia coli, ML4707, Gram -, 10^6 cells/ml
S. aureus Smith = assay: microbe, parasite or virus in culture; details: Staphylococcus aureus
C. ramosum = assay: MIC, anaerobic bacteria; details: Thomasclavelia ramosa
S. agalactiae 4394 = assay: microbe, parasite or virus in culture; details: Streptococcus agalactiae
[1] = test system: Salmonella enteritidis IID 604; assay: microbe, parasite or virus in culture; details: Salmonella enterica
S. agalactiae 4049 = assay: MIC, clinical isolates; assay type: cell-based; details: Streptococcus agalactiae; clinical isolate S. agalactiae 4049; 10^6 cells/ml
S. agalactiae 4368 = assay: MIC, clinical isolates; assay type: cell-based; details: Streptococcus agalactiae; clinical isolate S. agalactiae 4368; 10^6 cells/ml
[2] = test system: B. thetaiotaomicron (0661); assay: MIC, anaerobic bacteria; assay type: cell-based; details: Bacteroides thetaiotaomicron, Gram -, 10^6 cells/ml
S. pyogenes 3102 = assay: MIC, clinical isolates; assay type: cell-based; details: Streptococcus pyogenes; clinical isolate S. pyogenes 3102; 10^6 cells/ml
S. pyogenes 4372 = assay: MIC, clinical isolates; assay type: cell-based; details: Streptococcus pyogenes; clinical isolate S. pyogenes 4372; 10^6 cells/ml
K. pneumoniae 1-220S = assay: microbe, parasite or virus in culture; details: Klebsiella pneumoniae, 1220S
[3] = test system: Klebsiella pneumoniae KY(GN)6445; assay: MIC, aerobic bacteria; assay type: cell-based; details: Gram -, 10^6 cells/ml
Text: (§1) | Organism (10^6 cells/ml)

E. coli ATCC 10536 = assay: MIC, aerobic bacteria; assay type: cell-based; details: Escherichia coli, ATCC10536, Gram -, 10^6 cells/ml
Text: as §1

S. epidermidis IID 866 = assay: MIC, aerobic bacteria; assay type: cell-based; details: Staphylococcus epidermidis, IID866, Gram +, 10^6 cells/ml
Text: as §1

[4] = test system: S. aureus IID 670 (Terajima); assay: MIC, aerobic bacteria; assay type: cell-based; details: Staphylococcus aureus, IID670, Gram +, 10^6 cells/ml
Text: as §1

[5] = test system: Acinetobacter anitratus IID 876; assay: MIC, aerobic bacteria; assay type: cell-based; details: Acinetobacter calcoaceticus, IID876, Gram -, 10^6 cells/ml
Text: as §1

[6] = test system: Escherichia coli NIHJ JC-2; assay: MIC, aerobic bacteria; assay type: cell-based; details: NIHJJC2, Gram -, 10^6 cells/ml
Text: as §1

P. mirabilis IID 992 = assay: MIC, aerobic bacteria; assay type: cell-based; details: Proteus mirabilis, IID992, Gram -, 10^6 cells/ml
Text: as §1

[7] = test system: Citrobacter freundii IID 976; assay: MIC, aerobic bacteria; assay type: cell-based; details: IID976, Gram -, 10^6 cells/ml
Text: as §1

[8] = test system: Morganella morganii IID 602; assay: MIC, aerobic bacteria; assay type: cell-based; details: IID602, Gram -, 10^6 cells/ml
Text: as §1

[9] = test system: Proteus vulgaris IFO 3167; assay: MIC, aerobic bacteria; assay type: cell-based; details: IFO3167, Gram -, 10^6 cells/ml
Text: as §1

[10] = test system: Serratia marcescens IID 618; assay: MIC, aerobic bacteria; assay type: cell-based; details: IID618, Gram -, 10^6 cells/ml
Text: as §1

S. pyogenes IID 692 = assay: MIC, aerobic bacteria; assay type: cell-based; details: Streptococcus pyogenes, IID692, Gram +, 10^6 cells/ml
E. faecalis 402 = assay: microbe, parasite or virus in culture; details: Enterococcus faecalis
E. faecalis 604 = assay: MIC, clinical isolates; assay type: cell-based; details: Enterococcus faecalis; clinical isolate E. faecalis 604; 10^6 cells/ml
P. maltophilia GIFU 2491 = assay: MIC, aerobic bacteria; assay type: cell-based; details: Stenotrophomonas maltophilia, GIFU2491, Gram -, 10^6 cells/ml
E. faecalis 214 = assay: MIC, clinical isolates; assay type: cell-based; details: Enterococcus faecalis; clinical isolate E. faecalis 214; 10^6 cells/ml
[11] = test system: Enterobacter cloacae IID 977; assay: MIC, aerobic bacteria; details: IID977
F. necrophorum S-45 = assay: MIC, anaerobic bacteria; assay type: cell-based; details: Fusobacterium necrophorum, S45, Gram -, 10^6 cells/ml
[12] = test system: Streptococcus pyogenes (S-8); assay: MIC, aerobic bacteria; assay type: cell-based; details: Gram +, 10^6 cells/ml
E. faecalis 49 = assay: MIC, clinical isolates; assay type: cell-based; details: Enterococcus faecalis; clinical isolate E. faecalis 49; 10^6 cells/ml
P. aeruginosa IFO 12689 = assay: MIC, aerobic bacteria; assay type: cell-based; details: Pseudomonas aeruginosa, IFO12689, Gram -, 10^6 cells/ml
[13] = test system: B. melaninogenicus GAI 0410; assay: MIC, anaerobic bacteria; details: Prevotella intermedia, GAI0410

Measured: MIC

O=C(O)c1cn(C2CC2)c2c(F)c(N3CCC(CNCCF)C3)c(F)cc2c1=O (centres unmarked) [Exp. 2, 1-Cyclopropyl-7-[3-(2-fluoroethyl)aminomethyl-1-pyrrolidinyl]-6,8-difluoro-1,4-dihydro-4-oxo-3-quinolinecarboxylic acid]
0.2 µg/mL: [8] | [10] | P. maltophilia GIFU 2491 | F. necrophorum S-45
0.025 µg/mL: E. coli ML 4707 | E. coli ATCC 10536 | S. epidermidis IID 866 | [4] | [6]
1.56 µg/mL: P. aeruginosa IFO 12689
0.39 µg/mL: E. lentum GAI 5242 | C. ramosum | [13]
0.0125 µg/mL: S. aureus Smith
0.78 µg/mL: [2]
0.1 µg/mL: S. agalactiae 4394 | [1] | K. pneumoniae 1-220S | S. pyogenes IID 692 | E. faecalis 402 | E. faecalis 604 | [11]
0.05 µg/mL: all other assays above

O=C(O)c1cn(C2CC2)c2c(Cl)c(N3CCC(CNCCF)C3)c(F)cc2c1=O (centres unmarked) [Exp. 1, 8-Chloro-1-cyclopropyl-6-fluoro-7-[3-(2-fluoroethyl)aminomethyl-1-pyrrolidinyl]-1,4-dihydro-4-oxo-3-quinolinecarboxylic acid]
0.05 µg/mL: S. agalactiae 4342 | [3] | [5] | [7] | S. pyogenes IID 692 | E. faecalis 604 | E. faecalis 214 | E. faecalis 49
≤ 0.0063 µg/mL: S. aureus Smith | [4]
0.2 µg/mL: [2] | P. maltophilia GIFU 2491
0.025 µg/mL: S. pyogenes 4340 | S. pneumoniae 2054 | S. agalactiae 4049 | S. agalactiae 4368 | S. pyogenes 3102 | S. pyogenes 4372 | P. mirabilis IID 992 | [9] | [12]
1.56 µg/mL: P. aeruginosa IFO 12689
0.0125 µg/mL: E. coli ML 4707 | E. coli ATCC 10536 | S. epidermidis IID 866 | [6]
0.1 µg/mL: all other assays above
